# Experimental data published in patent US20240059700A1, “NOVEL DIACYLGLYCERIDE O-ACYLTRANSFERASE 2 INHIBITORS” (Merck Sharp & Dohme LLC, priority 2020, published 2024).
# Biological target: human DGAT2 (hDGAT2) (Homo sapiens (Human), UniProt Q96PD7)
# Assay: DGAT2 Enzymatic Activity Assay
# Assay type: biochemical
# Conditions: membrane prep of Sf-9 insect cells expressing hDGAT2; 13C18-triolein product by LC/MS/MS
# Procedure, shortened: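 Membranes from Sf-9 cells infected with untagged hDGAT2 baculovirus (8 ng/μL) incubated at rt in 100 mM Tris pH 7.0, 20 mM MgCl2, 5% ethanol with 25 μM diolein and 5 μM 13C oleoyl-CoA. 13C18-triolein product quantified by LC/MS/MS against 13C21-triolein internal standard; IC50 by 4-parameter fit.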
# Sequence of human DGAT2 (hDGAT2) (Q96PD7 whole entry): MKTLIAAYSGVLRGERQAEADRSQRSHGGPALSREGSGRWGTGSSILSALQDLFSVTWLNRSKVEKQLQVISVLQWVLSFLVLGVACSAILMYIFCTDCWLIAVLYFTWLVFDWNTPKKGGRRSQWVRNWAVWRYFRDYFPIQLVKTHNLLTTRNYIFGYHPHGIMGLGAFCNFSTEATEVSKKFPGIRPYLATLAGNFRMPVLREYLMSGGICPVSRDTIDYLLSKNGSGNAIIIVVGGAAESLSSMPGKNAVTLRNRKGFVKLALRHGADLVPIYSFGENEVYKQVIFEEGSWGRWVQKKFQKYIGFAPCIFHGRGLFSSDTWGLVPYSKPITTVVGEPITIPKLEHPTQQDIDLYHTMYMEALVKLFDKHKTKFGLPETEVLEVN
row,Structure (SMILES),IC50 [nM]
1,"CC(C)(O)Cn1nc(-c2cccc(C3CC3)c2)c2ncc(C(=O)NC3(C)CS(=O)(=O)C3)cc21 [Example 112, 3-(3-cyclopropylphenyl)-1-(2-hydroxy-2-methylpropyl)-N-(3-methyl-1,1-dioxidothietan-3-yl)-1H-pyrazolo[4,3-b]pyridine-6-carboxamide]",6
2,"CC(C)(NC(=O)c1cnc2c(-c3cccc(OC(F)F)c3)cn(-c3ncc(F)cn3)c2c1)C(N)=O [Example 18, N-(1-amino-2-methyl-1-oxopropan-2-yl)-3-(3-(difluoromethoxy)phenyl)-1-(5-fluoropyrimidin-2-yl)-1H-pyrrolo[3,2-b]pyridine-6-carboxamide]",3420
3,"Cn1nccc1-c1cn(-c2ccc(F)cc2)c2cc(C(=O)N[C@@]3(C)CCS(=O)(=O)C3)cnc12 [Example 13, (S)-1-(4-fluorophenyl)-N-(3-methyl-1,1-dioxidotetrahydrothiophen-3-yl)-3-(1-methyl-1H-pyrazol-5-yl)-1H-pyrrolo[3,2-b]pyridine-6-carboxamide]",89
4,"CC(C)n1nc(-c2cc(OCC(F)F)ncc2F)c2ncc(C(=O)NC3(C)CS(=O)(=O)C3)cc21 [Example 121, 3-(2-(2,2-difluoroethoxy)-5-fluoropyridin-4-yl)-1-isopropyl-N-(3-methyl-1,1-dioxidothietan-3-yl)-1H-pyrazolo[4,3-b]pyridine-6-carboxamide]",8.3
5,"CC[C@H](C)n1nc(-c2cc(OC(F)F)ncc2F)c2ncc(C(=O)NC3(C)CCS(=O)(=O)CC3)cc21 [Example 116, (S)-1-(sec-butyl)-3-(2-(difluoromethoxy)-5-fluoropyridin-4-yl)-N-(4-methyl-1,1-dioxidotetrahydro-2H-thiopyran-4-yl)-1H-pyrazolo[4,3-b]pyridine-6-carboxamide]",11.5
6,"CC1(NC(=O)c2cnc3c(-c4cncc(OC(F)F)c4)nn(C4CCOCC4)c3c2)CS(=O)(=O)C1 [Example 64, 3-[5-(difluoromethoxy)-3-pyridyl]-N-(3-methyl-1,1-dioxo-thietan-3-yl)-1-tetrahydropyran-4-yl-pyrazolo[4,3-b]pyridine-6-carboxamide]",177
7,"CC(C)n1nc(-c2cccc(OC(F)F)c2)c2ncc(C(=O)NC3(CO)CC(F)(F)C3)cc21 [Example 51, N-(3,3-difluoro-1-(hydroxymethyl)cyclobutyl)-3-(3-(difluoromethoxy)phenyl)-1-isopropyl-1H-pyrazolo[4,3-b]pyridine-6-carboxamide]",17
8,"CC1(NC(=O)c2cnc3c(-c4cccc(OC(F)F)c4)nn(Cc4ccc(F)cc4)c3c2)CS(=O)(=O)C1 [Example 70, 3-(3-(difluoromethoxy)phenyl)-1-(4-fluorobenzyl)-N-(3-methyl-1,1-dioxidothietan-3-yl)-1H-pyrazolo[4,3-b]pyridine-6-carboxamide]",40
9,"CC1(NC(=O)c2cnc3c(-c4cccc(OC(F)F)c4)nn(C4CCOCC4C(F)(F)F)c3c2)CS(=O)(=O)C1 (centres unmarked) [Example 71, 3-(3-(difluoromethoxy)phenyl)-N-(3-methyl-1,1-dioxidothietan-3-yl)-1-(3-(trifluoromethyl)tetrahydro-2H-pyran-4-yl)-1H-pyrazolo[4,3-b]pyridine-6-carboxamide]",95
10,"C[C@]1(NC(=O)c2ccc3c(-c4ccccc4Cl)cn(-c4ccc(F)cc4)c3n2)CCS(=O)(=O)C1 [Example 10, (S)-3-(2-chlorophenyl)-1-(4-fluorophenyl)-N-(3-methyl-1,1-dioxidotetrahydrothiophen-3-yl)-1H-pyrrolo[2,3-b]pyridine-6-carboxamide]",3700
11,"C[C@@]1(NC(=O)c2cnc3c(-c4ccccc4Cl)cn(-c4ccc(F)cc4)c3c2)CCS(=O)(=O)C1 [Example 12, (R)-3-(2-chlorophenyl)-1-(4-fluorophenyl)-N-(3-methyl-1,1-dioxidotetrahydrothiophen-3-yl)-1H-pyrrolo[3,2-b]pyridine-6-carboxamide]",356
12,"CC(C)n1nc(-c2cc(OC(F)F)ccc2F)c2cnc(C(=O)NC3(C)CS(=O)(=O)C3)cc21 [Example 36, 3-(5-(difluoromethoxy)-2-fluorophenyl)-1-isopropyl-N-(3-methyl-1,1-dioxidothietan-3-yl)-1H-pyrazolo[4,3-c]pyridine-6-carboxamide]",1.7
13,"CCOc1ccc(F)c(-c2nn(C(C)C)c3cc(C(=O)NC4(C)CS(=O)(=O)C4)cnc23)c1 [Example 115, 3-(5-ethoxy-2-fluorophenyl)-1-isopropyl-N-(3-methyl-1,1-dioxidothietan-3-yl)-1H-pyrazolo[4,3-b]pyridine-6-carboxamide]",3.3
14,"CC(C)n1nc(-c2cccc(OC(F)F)c2)c2ccc(C(=O)NC3(C)CS(=O)(=O)C3)c(F)c21 [Example 34, 3-(3-(difluoromethoxy)phenyl)-7-fluoro-1-isopropyl-N-(3-methyl-1,1-dioxidothietan-3-yl)-1H-indazole-6-carboxamide]",5.2
15,"CC(C)n1nc(-c2ccnc(N(C)C)c2)c2ncc(C(=O)NC3(C)CS(=O)(=O)C3)cc21 [Example 125, 3-(2-(dimethylamino)pyridin-4-yl)-1-isopropyl-N-(3-methyl-1,1-dioxidothietan-3-yl)-1H-pyrazolo[4,3-b]pyridine-6-carboxamide]",> 1000
16,"CC(C)(C)Cn1nc(-c2cccc(OC(F)F)c2)c2ncc(C(=O)NC3(C)CS(=O)(=O)C3)cc21 [Example 29, 3-(3-(difluoromethoxy)phenyl)-N-(3-methyl-1,1-dioxidothietan-3-yl)-1-neopentyl-1H-pyrazolo[4,3-b]pyridine-6-carboxamide]",388
17,"CC(C)n1nc(-c2cc(OC(F)F)ccn2)c2ncc(C(=O)NC3(C)CS(=O)(=O)C3)cc21 [Example 98, 3-[4-(difluoromethoxy)-2-pyridyl]-1-isopropyl-N-(3-methyl-1,1-dioxo-thietan-3-yl)pyrazolo[4,3-b]pyridine-6-carboxamide]",690
18,"CC(C)n1nc(-c2cccc(C(C)(F)F)c2)c2ncc(C(=O)NC3(C)CS(=O)(=O)C3)cc21 [Example 93, 3-[3-(1,1-difluoroethyl)phenyl]-1-isopropyl-N-(3-methyl-1,1-dioxo-thietan-3-yl)pyrazolo[4,3-b]pyridine-6-carboxamide]",210
19,"C[C@]1(NC(=O)c2cc3c(cn2)c(-c2cccc(OC(F)F)c2)cn3-c2ccc(F)cc2)CCS(=O)(=O)C1 [Example 15, (S)-3-(3-(difluoromethoxy)phenyl)-1-(4-fluorophenyl)-N-(3-methyl-1,1-dioxidotetrahydrothiophen-3-yl)-1H-pyrrolo[3,2-c]pyridine-6-carboxamide]",23
20,"CC(C)n1nc(-c2cccc(S(C)(=O)=O)c2)c2ncc(C(=O)NC3(C)CS(=O)(=O)C3)cc21 [Example 102, 1-isopropyl-N-(3-methyl-1,1-dioxo-thietan-3-yl)-3-(3-methylsulfonylphenyl)pyrazolo[4,3-b]pyridine-6-carboxamide]",7100
21,"CC(C)n1nc(-c2cccc(OC(F)F)c2)c2ncc(C(=O)N[C@@H]3CCC[C@H]3N3CCOCC3)cc21 [Example 41, 3-[3-(difluoromethoxy)phenyl]-1-isopropyl-N-[(1R,2R)-2-morpholinocyclopentyl]pyrazolo[4,3-b]pyridine-6-carboxamide]",72
22,"CC(C)n1nc(-c2cccc(OC(F)F)c2)c2ncc(C(=O)N[C@@]3(C)CCS(=O)(=O)C3)cc21 [Example 31, (S)-3-(3-(difluoromethoxy)phenyl)-1-isopropyl-N-(3-methyl-1,1-dioxidotetrahydrothiophen-3-yl)-1H-pyrazolo[4,3-b]pyridine-6-carboxamide]",7.2
23,"CC(C)n1nc(-c2cccc(OC(F)F)c2)c2ncc(C(=O)NC3(CO)CCC3)cc21 [Example 49, 3-(3-(difluoromethoxy)phenyl)-N-(1-(hydroxymethyl)cyclobutyl)-1-isopropyl-1H-pyrazolo[4,3-b]pyridine-6-carboxamide]",6.1
24,"CC1(NC(=O)c2cnc3c(-c4cccc(OC(F)F)c4)nn(C4CC(F)(F)C4)c3c2)CS(=O)(=O)C1 [Example 86, 1-(3,3-difluorocyclobutyl)-3-(3-(difluoromethoxy)phenyl)-N-(3-methyl-1,1-dioxidothietan-3-yl)-1H-pyrazolo[4,3-b]pyridine-6-carboxamide]",24
25,"CC(C)n1nc(-c2cncc(OC(F)F)c2)c2ncc(C(=O)N[C@H]3CCC[C@H]3O)cc21 [Example 105, 3-(5-(difluoromethoxy)pyridin-3-yl)-N-((1S,2R)-2-hydroxycyclopentyl)-1-isopropyl-1H-pyrazolo[4,3-b]pyridine-6-carboxamide]",78
26,"CC(CS(C)(=O)=O)NC(=O)c1cnc2c(-c3cccc(OC(F)F)c3)cn(-c3ncc(F)cn3)c2c1 (centres unmarked) [Example 17, 3-(3-(difluoromethoxy)phenyl)-1-(5-fluoropyrimidin-2-yl)-N-(1-(methylsulfonyl)propan-2-yl)-1H-pyrrolo[3,2-b]pyridine-6-carboxamide]",72
27,"CC(C)n1nc(-c2cccc(OC(F)F)c2)c2ncc(C(=O)N[C@H]3CCCC[C@@H]3O)cc21 [Example 40, 3-[3-(difluoromethoxy)phenyl]-N-[(1S,2S)-2-hydroxycyclohexyl]-1-isopropyl-pyrazolo[4,3-b]pyridine-6-carboxamide]",17
28,"C[C@]1(NC(=O)c2cc3c(cn2)c(-c2ccccc2Cl)cn3-c2ccc(F)cc2)CCS(=O)(=O)C1 [Example 14, (S)-3-(2-chlorophenyl)-1-(4-fluorophenyl)-N-(3-methyl-1,1-dioxidotetrahydrothiophen-3-yl)-1H-pyrrolo[3,2-c]pyridine-6-carboxamide]",292
29,"CC(C)n1nc(-c2cccc(OC(F)F)c2)c2ncc(C(=O)NC3(C(C)(C)O)CCOCC3)cc21 [Example 72, 3-(3-(difluoromethoxy)phenyl)-N-(4-(2-hydroxypropan-2-yl)tetrahydro-2H-pyran-4-yl)-1-isopropyl-1H-pyrazolo[4,3-b]pyridine-6-carboxamide]",638
